Results: ChEMBL document CHEMBL1133672, “Replacement of glycine with dicarbonyl and related moieties in analogues of the C-terminal pentapeptide of cholecystokinin: CCK(2) agonists displaying a novel binding mode” (J Med Chem, 2000)
pEC50, pKi: −log10 of the molar value. Numbered stars: 1 amine (or outer) side, 2 acyl side, 3 side chain; on linkers, the order of the positions; unused ones are H or OH. Square brackets hold non-standard residues; d marks the D form. Peptide text beside a SMILES is read from it. * marks the point of attachment. NMeNle = CCCC[C@H](NC)C(=O)O; Suc = O=C(CCC(=O)[*:2])[*:1]; Malonamoyl = NC(=O)CC(=O)*; X3 = O=C(CS(=O)(=O)O)*; Boc = CC(C)(C)OC(=O)*; X2 = COC(=O)CC(=O)*; βAla = NCCC(=O)O

Tests used:
[1] = target: T1, Cholecystokinin receptor type A (Cavia porcellus, UniProt Q63931); experiment: Affinity against Cholecystokinin type A receptor on guinea pig pancreatic membranes.
T1 sequence (Q63931 whole entry): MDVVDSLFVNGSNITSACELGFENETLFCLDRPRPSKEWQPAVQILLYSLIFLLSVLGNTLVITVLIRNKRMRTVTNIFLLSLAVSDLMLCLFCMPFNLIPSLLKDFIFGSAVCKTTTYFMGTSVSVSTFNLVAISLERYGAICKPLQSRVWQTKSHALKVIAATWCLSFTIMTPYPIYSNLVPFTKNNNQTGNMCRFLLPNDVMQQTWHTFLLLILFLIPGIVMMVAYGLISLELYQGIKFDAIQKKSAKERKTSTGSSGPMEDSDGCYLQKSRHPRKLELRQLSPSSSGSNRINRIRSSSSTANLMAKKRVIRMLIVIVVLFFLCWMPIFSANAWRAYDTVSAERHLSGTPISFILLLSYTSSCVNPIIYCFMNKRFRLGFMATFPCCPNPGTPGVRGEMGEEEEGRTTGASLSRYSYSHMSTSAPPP

[2] = target: T2, Gastrin/cholecystokinin type B receptor (Rattus norvegicus, UniProt P30553); experiment: Affinity against Cholecystokinin type B receptor expressed in CHO cells on rat brain.; assay type: functional, cell-based
T2 sequence (P30553 whole entry): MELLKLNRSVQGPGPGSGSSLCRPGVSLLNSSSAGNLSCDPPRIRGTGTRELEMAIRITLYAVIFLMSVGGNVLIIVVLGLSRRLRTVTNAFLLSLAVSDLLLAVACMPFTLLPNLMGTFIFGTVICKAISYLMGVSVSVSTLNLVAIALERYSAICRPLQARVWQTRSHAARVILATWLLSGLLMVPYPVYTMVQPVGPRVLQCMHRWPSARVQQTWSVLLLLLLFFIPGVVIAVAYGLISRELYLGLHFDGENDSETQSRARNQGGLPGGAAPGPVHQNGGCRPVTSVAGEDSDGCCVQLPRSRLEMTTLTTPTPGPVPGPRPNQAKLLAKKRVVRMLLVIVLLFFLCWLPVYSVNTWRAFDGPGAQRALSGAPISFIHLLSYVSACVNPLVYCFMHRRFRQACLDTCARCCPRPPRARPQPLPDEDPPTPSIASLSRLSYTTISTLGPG

[3] = target: T2, Gastrin/cholecystokinin type B receptor; experiment: Compound was tested for binding affinity against Cholecystokinin type B receptor expressed in CHO cells on the rat brain.; assay type: cell-based
[4] = target: Gastrin/cholecystokinin type B receptor (Cavia porcellus); experiment: Binding affinity against cholecystokinin type B receptor on guinea pig cortex.

Compound	pKi [1]	further results
CCCC[C@@H](C(=O)N[C@@H](CC(=O)O)C(=O)N[C@@H](Cc1ccccc1)C(N)=O)N(C)C(=O)[C@H](Cc1c[nH]c2ccccc12)NC(=O)[C@H](C)N	< 5.52	–
CCCC[C@@H](C(=O)N[C@@H](CC(=O)O)C(=O)N[C@@H](Cc1ccccc1)C(N)=O)N(C)C(=O)[C@@H](N)Cc1c[nH]c2ccccc12 (H-W[NMeNle]DF-NH2)	< 5.52	–
CCCC[C@@H](C(=O)N[C@@H](CC(=O)O)C(=O)N[C@@H](Cc1ccccc1)C(N)=O)N(C)C(=O)[C@H](Cc1c[nH]c2ccccc12)NC(=O)CC(=O)OC (X2-W[NMeNle]DF-NH2)	–	pEC50 [2]: 8.70
CCCC[C@@H](C(=O)N[C@@H](CC(=O)O)C(=O)N[C@@H](Cc1ccccc1)C(N)=O)N(C)C(=O)[C@H](Cc1c[nH]c2ccccc12)NC(=O)OC(C)(C)C (Boc-W[NMeNle]DF-NH2)	< 5.30	pKi [3]: 8.59; pKi [4]: 9.10
CCCC[C@@H](C(=O)N[C@@H](CC(=O)O)C(=O)N[C@@H](Cc1ccccc1)C(N)=O)N(C)C(=O)[C@H](Cc1c[nH]c2ccccc12)NC(=O)CS(=O)(=O)O (X3-W[NMeNle]DF-NH2)	–	pEC50 [2]: 9.25
CCCC[C@@H](C(=O)N[C@@H](CC(=O)O)C(=O)N[C@@H](Cc1ccccc1)C(N)=O)N(C)C(=O)[C@H](Cc1c[nH]c2ccccc12)NC(=O)CCC(=O)O (Suc-W[NMeNle]DF-NH2)	< 5.52	–

More lines, main results first:

pKi [1]	Compound	further results
< 5.52	CCCC[C@@H](C(=O)N[C@@H](CC(=O)O)C(=O)N[C@@H](Cc1ccccc1)C(N)=O)N(C)C(=O)[C@H](Cc1c[nH]c2ccccc12)NC(=O)[C@@H](C)N	–
4.64	CCCC[C@@H](C(=O)N[C@@H](CC(=O)O)C(=O)N[C@@H](Cc1ccccc1)C(N)=O)N(C)C(=O)[C@H](Cc1c[nH]c2ccccc12)NC(=O)CC(N)=O (Malonamoyl-W[NMeNle]DF-NH2)	pEC50 [2]: 8.79
< 5.52	CCCC[C@@H](C(=O)N[C@@H](CC(=O)O)C(=O)N[C@@H](Cc1ccccc1)C(N)=O)N(C)C(=O)[C@H](Cc1c[nH]c2ccccc12)NC(=O)CN (H-GW[NMeNle]DF-NH2)	–
5.66	C[C@@]1(Cc2c[nH]c3ccccc23)NC(=O)CCCCCCC[C@@H](C(=O)N[C@@H](CC(=O)O)C(=O)N[C@@H](Cc2ccccc2)C(N)=O)NC1=O	–
5.54	CCCC[C@H](NC(=O)[C@H](Cc1c[nH]c2ccccc12)NC(=O)[C@H]1CCCCNC(=O)C[C@H](NC(=O)OC(C)(C)C)C(=O)N[C@H](Cc2ccc(OS(=O)(=O)O)cc2)C(=O)N[C@@H](CCCC)C(=O)N1)C(=O)N[C@@H](CC(=O)O)C(=O)N[C@@H](Cc1ccccc1)C(N)=O	–
5.34	CCCC[C@@H](C(=O)N[C@@H](CC(=O)O)C(=O)N[C@@H](Cc1ccccc1)C(N)=O)N(C)C(=O)[C@H](Cc1c[nH]c2ccccc12)NC(=O)CCNC(=O)OC(C)(C)C ({Boc-βAla}-W[NMeNle]DF-NH2)	–
